Values joined by “and” are separate entries in the source; they are usually repeats but may differ in a detail not shown here. Identical values can stand only once. “Also recorded” adds a separate entry of the source.
Key:
[1] = Blood levels of orally administered antibiotics; type: in vivo, rat; conditions: antibiotic given in drinking water; detection limit of assay 1 μM
Description: Dahl S rats are an established model of increased susceptibility to injury from myocardial ischemia/reperfusion (Baker, J. et al. “Resistance to myocardial ischemia in five rat strains: is there a genetic component of cardioprotection?” Am. J. Physiol. Heart Circ. Physiol. 278, H1395-H1400, 2000, Shi, Y. et al. “Increased resistance to myocardial ischemia in the Brown Norway vs. Dahl S rat: role of nitric oxide synthase and Hsp90.” J. Mol. Cell. Cardiol. 38(4):625-635, 2005). […] A minimum treatment time of 48 h with vancomycin was needed to decrease IS. A return to control values for myocardial IS at 72 h following discontinuation of vancomycin was observed (FIG. 5). To determine whether this decrease in IS was a direct effect of antibiotic present in the coronary vasculature, blood levels of vancomycin were measured. The concentration of vancomycin in blood was below detection limits of the assay used (1 μM). […]
Infarct size was measured in rats treated with the antibiotic mixture using the method described in example 3. […] To determine whether the decrease in infarct size was a direct effect of antibiotics present in the coronary vasculature, blood levels of streptomycin, neomycin, bacitracin and polymyxin B were measured. […]

[2] = test system: intestinal microbiota; assay: Fecal microbiota abundance by 16S/18S rRNA quantitative PCR; type: in vivo, rat
Description: In the following example, methods for quantifying microbiota abundance in rat feces are described. Fresh fecal pellets were obtained from each rat prior to (day 0) and at day 6 to 7 post treatment. Pellets were homogenized in 1 ml PBS. 200 μl of homogenate was used for microbial DNA isolation using a QIAamp DNA Stool Mini Kit (Qiagen, Valencia, Calif.). Isolated DNA samples were subjected to quantitative PCR using an iCycler (Bio-Rad, Hercules, Calif.) for microbial population enumeration. PCR reaction mixture consisted of 50% iQ SYBR Green Supermix (Bio-Rad), 0.4 μM forward and reverse primers, and 3.8% template solution in RNase/DNase free water. Primer sets specific for 16s and 18s rRNA genes of particular microbial phylum, class, genus, and species (M. smithii and L. plantarum) along with 20 reaction temperature and reference strains are detailed in FIG. 2 and Table 1.

[3] = test system: Dahl S rats; assay: In vivo regional myocardial ischemia/reperfusion, infarct size (IS/AAR); set-up: species or system rat
Description: An anesthetized rat model was used for in vivo ischemia/reperfusion studies using the general surgical protocol and determination of infarct size (IS) described in “K(ATP) opener-induced delayed cardioprotection: involvement of sarcolemmal and mitochondrial K(ATP) channels, free radicals and MEK½” (Gross, E. et al., J. Mol. Cell. Cardiol. 35, 985-992, 2003), the entirety of which is incorporated herein by reference. Briefly, following anesthesia, a tracheotomy for artificial ventilation was performed, with the left common carotid artery cannulated for blood pressure and heart rate measurements. A thoracotomy was performed at the fifth intercostal space, the pericardium was excised, and a silk ligature was placed distal to the left atrial appendage that spanned to the sternal portion of the left ventricle, which included the left anterior descending coronary artery. Occlusion of the area described [area at risk (AAR)] was created by placing ends of the ligature through a polypropylene tube and fixing the snare to the epicardial surface with a hemostat. After 30 min, the hemostat was released to reperfuse the AAR. Following 2 h of reperfusion, the ligature was again occluded, and the AAR was determined by patent-blue negative staining. The heart was then excised, cross-sectioned into 4 to 5 slices, and separated into normal zone and AAR. Pieces were incubated in 1% 2,3,5-triphenyltetrazolium chloride to determine IS. The heart was then incubated overnight in 10% formaldehyde, and infarcted tissue was dissected from the AAR. IS was expressed as a percentage of the AAR (IS/AAR). Leptin (0.12 μg/kg) was administered intravenously as a bolus at 24 and 12 h before ischemia. Amino acids were administered intravenously as a bolus at 24 and 12 hours before ischemia or dissolved in the drinking water and given 48 hours before ischemia.

[4] = test system: isolated hearts; assay: In vitro global ischemia/reperfusion of isolated perfused hearts, infarct size and recovery of LVDP; set-up: species or system rat
Description: For in vitro ischemia/reperfusion studies, hearts were perfused retrogradely, as described previously in Baker, J. et al. (Am. J. Physiol. Heart Circ. Physiol., 2000), the entirety of which is incorporated herein by reference. Briefly, hearts were perfused with modified Krebs-Henseleit buffer (120 mM NaCl, 25 mM NaHCO3, 4.7 mM KCl, 1.2 mM KH2PO4, 1.20 mM MgSO4, 11 mM glucose, and 1.8 mM CaCl2) bubbled with 95% O2-5% CO2 for a 40-minute stabilization period and subjected to 25 minutes of global no-flow ischemia, followed by 180 minutes of reperfusion. Before use, all perfusion fluids were filtered through cellulose acetate membranes with a pore size of 5.0 μm to remove particulate matter. Hearts were kept in temperature-controlled chambers to maintain myocardial temperature at 37° C. A balloon connected to a pressure transducer was inserted into the left ventricle to monitor cardiac function. For some experiments, hearts were stabilized for 25 minutes and then perfused with vancomycin or a mixture of antibiotics for 15 minutes before ischemia/reperfusion. During the initial 40 minute reperfusion period, recovery of mechanical function was measured as left ventricular developed pressure (LVDP) under steady-state conditions and expressed as a percentage of preischemic LVDP. At the end of the 3 hour reperfusion period, hearts were processed and stained with 2,3,5-triphenyltetrazolium chloride dye for IS determination.

[5] = test system: leptin; assay: Plasma cytokine analysis (leptin); type: in vivo, rat; conditions: vancomycin in drinking water, d 6 vs d 0
Description: The concentration of cytokines in blood of rats treated with vancomycin was quantified to identify antibiotic-induced changes. […] Blood samples were kept on ice for 30 min and then centrifuged at 1000 g for 10 min at 4° C. to obtain plasma. Plasma samples were then analyzed to determine the concentration of 23 cytokines (Eve Technologies, Calgary, AB, Canada). Antibiotic was administered continuously via drinking water as described in example 1.

**Q.** Which results are given for CN[C@H](CC(C)C)C(=O)N[C@H]1C(=O)N[C@@H](CC(N)=O)C(=O)N[C@H]2C(=O)N[C@H]3C(=O)N[C@H](C(=O)N[C@H](C(=O)O)c4cc(O)cc(O)c4-c4cc3ccc4O)[C@H](O)c3ccc(c(Cl)c3)Oc3cc2cc(c3O[C@@H]2O[C@H](CO)[C@@H](O)[C@H](O)[C@H]2O[C@H]2C[C@](C)(N)[C@H](O)[C@H](C)O2)Oc2ccc(cc2Cl)[C@H]1O [vancomycin, Vancomycin]?
**A.** concentration in blood [1]: < 1000 nM; total bacterial/microbial numbers in feces ([2]; oral antibiotic in drinking water, Dahl S rats): reduced total bacterial numbers; also recorded: reduced total microbial numbers; also recorded: reduce overall bacterial numbers; change of Bacilli abundance in feces ([2]; oral antibiotic treatment): increased two fold; change of Lactobacillales abundance in feces ([2]; oral antibiotic treatment): increase abundance; change of Proteobacteria abundance in feces ([2]; oral antibiotic treatment): increase abundance; increase of Proteobacteria in feces ([2]; oral antibiotic treatment): 120 fold; reduction in myocardial IS ([3]; Dahl S rats, antibiotic in drinking water 7 d, in vivo regional ischemia/reperfusion): ~27%; effect on infarct size in vivo ([3]; antibiotic added to the drinking water): reduced infarct size (IS) in vivo; decrease in infarct size ([3]; vancomycin 15 mg/kg/day for 72 hours, thrombopoietin i.v. 15 minutes prior to ischemia): 28%; effect on IS when added directly to coronary perfusate ([4]; 1 μM in perfusate, in vitro ischemia/reperfusion): no reduction in IS; also recorded: no effect on severity of myocardial infarction; also recorded: did not reduce IS in vitro; effect on infarct size of isolated hearts ([4]; antibiotic added to the drinking water, then excluded from coronary circulation): reduced IS; decrease in IS ([4]; antibiotic in drinking water, then excluded from coronary perfusate, in vitro ischemia/reperfusion): 29%; time after treatment ceased at which cardioprotection was lost ([4]; vancomycin in drinking water): 3 days; time of treatment within which cardioprotection was established ([4]; vancomycin in drinking water): ≤ 2 days; decrease in circulating leptin [5]: 38±4% and 38%
